According to patent US20260240818A1, “METHODS FOR THE TREATMENT OF FOOD ALLERGY” (INSTITUT NATIONAL DE LA SANTÉ ET DE LA RECHERCHE MÉDICALE, priority 2023, published 2026):
“Also recorded” adds a separate entry of the source.

Experiments:
peanut-specific IgE = assay: Peanut-specific IgE ELISA on serum from the peanut allergy model; assay type: in vivo, mouse; details: FOS-enriched diet, serum after last PE challenge
Protocol: On days 1, 7, and 21 mice were sensitized with 500 μg of peanut extract (PE) together with 2 mg of Imject alum (Thermo Fisher, France) by intraperitoneal (IP) injection (100 μl in PBS). Starting from day 35, for 7 days, mice were challenged with 30 mg of PE in NaHCO3 (0.1M) by oral gavage, and clinical score (Table 2) and occurrence of diarrhoea was registered for 1 hours after each gavage. After the last challenge, blood is collected for serum extraction. Non-allergic control animals were sham sensitized (2 mg alum but no peanut extract) but challenged like the other experimental groups. Peanut Extract (PE) was coated on ELISA plates at 5 μg/ml in 0.05 M sodium carbonate-bicarbonate buffer (Sigma-Aldrich, France) over-night at 4° C., plates were washed 3 times with PBS-0.05% Tween 20 (Sigma-Aldrich, France). […] Sample preparation: Mouse serum from blood collected 1 hour after the last oral peanut challenge was diluted 1/50 in ELISA assay buffer (1×) from the ELISA kit used. The colorimetric reaction was stopped by addition of H2SO4 (5M) and absorbance was recorded at 450 nm.

peanut-sensitized mice = assay: Peanut allergy mouse model: clinical score and diarrhoea after oral peanut extract challenge; assay type: in vivo; details: for clinical score / incidence of diarrhoea: FOS-enriched diet; for clinical score: average of days 1-3 of oral PE challenge; for incidence of diarrhoea: oral PE challenge
Protocol: All mice were bred and maintained on a peanut- and soy-free diet under specific pathogen-free conditions until the start of the experiment.
Pyridoxamine: pyridoxamine dihydrochloride (Sigma-Aldrich, France) is added to drinking water at 1 mg/ml throughout the experiment.
RAGE antagonist FPS-ZM1: twice weekly 100 μl IP injections of FPS-ZM1 in PBS (Sigma Aldrich, France) at 0 (control group), 0.5, or 1 mg/kg b.w. were performed throughout the experiment.
Clinical score (Table 2) was continually observed from 15 to 50 minutes after oral allergen challenge and noted for each mouse. For analysis purposes, the average clinical score of the first 3 days of challenge is calculated for each mouse.
Experimental groups were compared by One-Way ANOVA, selected groups were compared using Holm-Sidak's correction for multiple comparisons. For diarrhoea data, pairwise comparisons of survival curves were performed and analysed by Mantel-Cox log-rank test.

[1] = FPS-ZM1 0.5 or 1 mg/kg b.w. i.p. twice weekly
[2] = pyridoxamine 1 mg/ml in drinking water throughout

O=C(c1ccc(Cl)cc1)N(Cc1ccccc1)C1CCCCC1 [FPS-ZM1, 4-Chloro-N-cyclohexyl-N-(phenylmethyl)benzamide]
allergen-specific IgE levels (peanut-specific IgE; [1]): lowering
FOS-induced aggravating effects in a mouse model of peanut allergy (peanut-sensitized mice; [1]): eliminates; also recorded: limit
clinical score (peanut-sensitized mice; [1]): lowering
incidence of diarrhoea (peanut-sensitized mice; [1]): lowering

Cc1ncc(CO)c(CN)c1O [pyridoxamine]
serum peanut-specific IgE levels (peanut-specific IgE; [2]): reduced
aggravating effects of the FOS-enriched diet on peanut allergic reactions (peanut-sensitized mice; [2]): eliminates; also recorded: block
clinical score (peanut-sensitized mice; [2]): reduced
incidence of diarrhoea (peanut-sensitized mice; [2]): reduced
